The source made the active and inactive calls. The rule behind the calls is not given here.
Target: T1, N-formyl peptide receptor 2 (Homo sapiens) (UniProt P25090)
T1 sequence (whole entry): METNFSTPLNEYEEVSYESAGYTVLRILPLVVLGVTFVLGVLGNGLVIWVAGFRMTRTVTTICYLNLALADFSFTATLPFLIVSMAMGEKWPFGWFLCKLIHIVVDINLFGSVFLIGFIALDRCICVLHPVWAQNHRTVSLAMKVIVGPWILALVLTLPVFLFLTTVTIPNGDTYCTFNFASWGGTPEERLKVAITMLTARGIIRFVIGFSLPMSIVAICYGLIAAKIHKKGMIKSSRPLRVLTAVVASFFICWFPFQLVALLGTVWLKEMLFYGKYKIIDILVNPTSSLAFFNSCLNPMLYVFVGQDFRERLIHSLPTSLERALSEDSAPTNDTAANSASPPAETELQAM
Test: Binding affinity to FPR2 receptor in human neutrophils assessed as induction of intracellular calcium mobilization at 1 uM in presence of MMK-1
Type: functional, cell-based

Compound | Activity
CSCC[C@H](NC=O)C(=O)N[C@@H](CC(C)C)C(=O)N[C@]1(C(=O)O)C[C@@H]1c1ccccc1 | Active
COC(=O)[C@]1(NC(=O)[C@H](CC(C)C)NC(=O)[C@H](CCSC)NC=O)C[C@@H]1c1ccccc1 | inactive
COC(=O)[C@@]1(NC(=O)[C@H](CC(C)C)NC(=O)[C@H](CCSC)NC=O)C[C@H]1c1ccccc1 | inactive
COC(=O)[C@]1(NC(=O)[C@H](CC(C)C)NC(=O)[C@H](CCSC)NC=O)C[C@H]1c1ccccc1 | Active

Target: T2, fMet-Leu-Phe receptor 1/2 (Homo sapiens) (UniProt P21462+P25090)
Test: Agonist activity at FPR1/FPR2 receptor in human neutrophils assessed as stimulation of fMLP-OMe-induced superoxide radical generation at 0.1 uM incubated for 5 mins followed by fMLP-OMe induction by spectrophotometric analysis relative to control

Compound | Activity
CSCC[C@H](NC=O)C(=O)N[C@@H](CC(C)C)C(=O)N[C@]1(C(=O)O)C[C@@H]1c1ccccc1 | 200%
COC(=O)[C@]1(NC(=O)[C@H](CC(C)C)NC(=O)[C@H](CCSC)NC=O)C[C@@H]1c1ccccc1 | 114%
COC(=O)[C@@]1(NC(=O)[C@H](CC(C)C)NC(=O)[C@H](CCSC)NC=O)C[C@H]1c1ccccc1 | 114%
COC(=O)[C@]1(NC(=O)[C@H](CC(C)C)NC(=O)[C@H](CCSC)NC=O)C[C@H]1c1ccccc1 | 175%

Target: T2, fMet-Leu-Phe receptor 1/2 (Homo sapiens)
Test: Agonist activity at FPR1/FPR2 receptor in human neutrophils assessed as increase in intracellular calcium concentration by spectrofluorophotometric analysis
Type: functional, cell-based

Compound | Activity
CSCC[C@H](NC(=O)[C@H](Cc1ccc(O)cc1)NC(=O)[C@H](CCCCN)NC(=O)[C@@H](N)Cc1c[nH]c2ccccc12)C(=O)N[C@H](C(=O)N[C@H](CCSC)C(=O)O)C(C)C | Active

Target: T2, fMet-Leu-Phe receptor 1/2 (Homo sapiens)
Test: Agonist activity at FPR1/FPR2 receptor in human neutrophils assessed as induction of superoxide radical generation at 1 uM by […] spectrophotometric analysis relative to fMLP-OMe

Compound | Activity
CSCC[C@H](NC=O)C(=O)N[C@@H](CC(C)C)C(=O)N[C@]1(C(=O)O)C[C@@H]1c1ccccc1 | 6.4%
COC(=O)[C@]1(NC(=O)[C@H](CC(C)C)NC(=O)[C@H](CCSC)NC=O)C[C@H]1c1ccccc1 | 45%

Target: T2, fMet-Leu-Phe receptor 1/2 (Homo sapiens)
Test: Agonist activity at FPR1/FPR2 receptor in human neutrophils assessed as induction of superoxide radical generation at 1 uM by spectrophotometric analysis

Compound | Activity
COC(=O)[C@]1(NC(=O)[C@H](CC(C)C)NC(=O)[C@H](CCSC)NC=O)C[C@@H]1c1ccccc1 | 10%
COC(=O)[C@@]1(NC(=O)[C@H](CC(C)C)NC(=O)[C@H](CCSC)NC=O)C[C@H]1c1ccccc1 | 10%
COC(=O)[C@]1(NC(=O)[C@H](CC(C)C)NC(=O)[C@H](CCSC)NC=O)C[C@H]1c1ccccc1 | 10%

Target: T3, fMet-Leu-Phe receptor 1/2 (Homo sapiens, UniProt P21462+P25090)
T3 sequence (P21462 whole entry): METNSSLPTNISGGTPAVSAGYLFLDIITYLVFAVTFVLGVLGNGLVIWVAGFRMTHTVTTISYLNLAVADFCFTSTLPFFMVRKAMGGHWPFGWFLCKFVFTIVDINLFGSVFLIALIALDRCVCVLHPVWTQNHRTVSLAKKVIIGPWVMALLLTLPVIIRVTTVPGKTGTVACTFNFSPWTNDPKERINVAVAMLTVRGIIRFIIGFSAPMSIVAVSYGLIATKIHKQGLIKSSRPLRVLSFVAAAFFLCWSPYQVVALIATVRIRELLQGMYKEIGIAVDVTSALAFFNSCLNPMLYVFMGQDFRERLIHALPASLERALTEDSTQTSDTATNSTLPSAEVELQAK
T3 sequence (P25090 whole entry): T1 sequence (whole entry)
Test: Agonist activity at FPR1/FPR2 receptor in human neutrophils assessed as induction of superoxide radical generation by spectrophotometric analysis

Compound | EC50
CSCC[C@H](NC=O)C(=O)N[C@@H](CC(C)C)C(=O)N[C@]1(C(=O)O)C[C@@H]1c1ccccc1 | 0.25 µM
COC(=O)[C@H](Cc1ccccc1)NC(=O)[C@H](CC(C)C)NC(=O)[C@H](CCSC)NC=O | 0.016 µM

Target: T2, fMet-Leu-Phe receptor 1/2 (Homo sapiens)
Test: Agonist activity at FPR1/FPR2 receptor in human neutrophils assessed as induction of chemotaxis after 60 mins relative to fMLP-OMe

Compound | Activity
CSCC[C@H](NC=O)C(=O)N[C@@H](CC(C)C)C(=O)N[C@]1(C(=O)O)C[C@@H]1c1ccccc1 | 26%
COC(=O)[C@]1(NC(=O)[C@H](CC(C)C)NC(=O)[C@H](CCSC)NC=O)C[C@@H]1c1ccccc1 | 18%
COC(=O)[C@@]1(NC(=O)[C@H](CC(C)C)NC(=O)[C@H](CCSC)NC=O)C[C@H]1c1ccccc1 | 53%
COC(=O)[C@]1(NC(=O)[C@H](CC(C)C)NC(=O)[C@H](CCSC)NC=O)C[C@H]1c1ccccc1 | 12%

Target: T3, fMet-Leu-Phe receptor 1/2
Test: Agonist activity at FPR1/FPR2 receptor in human neutrophils assessed as induction of chemotaxis after 60 mins

Compound | EC50
CSCC[C@H](NC=O)C(=O)N[C@@H](CC(C)C)C(=O)N[C@]1(C(=O)O)C[C@@H]1c1ccccc1 | 0.0091 µM
COC(=O)[C@]1(NC(=O)[C@H](CC(C)C)NC(=O)[C@H](CCSC)NC=O)C[C@@H]1c1ccccc1 | 0.014 µM
COC(=O)[C@@]1(NC(=O)[C@H](CC(C)C)NC(=O)[C@H](CCSC)NC=O)C[C@H]1c1ccccc1 | 0.0047 µM
COC(=O)[C@]1(NC(=O)[C@H](CC(C)C)NC(=O)[C@H](CCSC)NC=O)C[C@H]1c1ccccc1 | 0.021 µM
COC(=O)[C@H](Cc1ccccc1)NC(=O)[C@H](CC(C)C)NC(=O)[C@H](CCSC)NC=O | 0.0025 µM

Target: T2, fMet-Leu-Phe receptor 1/2 (Homo sapiens)
Test: Agonist activity at FPR1/FPR2 receptor in human neutrophils assessed as increase in intracellular calcium concentration at 0.1 uM by Fura-2-based spectrofluorophotometric analysis
Type: functional, cell-based

Compound | Activity
CSCC[C@H](NC=O)C(=O)N[C@@H](CC(C)C)C(=O)N[C@]1(C(=O)O)C[C@@H]1c1ccccc1 | Active
COC(=O)[C@]1(NC(=O)[C@H](CC(C)C)NC(=O)[C@H](CCSC)NC=O)C[C@@H]1c1ccccc1 | Active
COC(=O)[C@@]1(NC(=O)[C@H](CC(C)C)NC(=O)[C@H](CCSC)NC=O)C[C@H]1c1ccccc1 | Active
COC(=O)[C@]1(NC(=O)[C@H](CC(C)C)NC(=O)[C@H](CCSC)NC=O)C[C@H]1c1ccccc1 | Active
COC(=O)[C@H](Cc1ccccc1)NC(=O)[C@H](CC(C)C)NC(=O)[C@H](CCSC)NC=O | Active

From ChEMBL document CHEMBL2331426, “A formyl peptide substituted with a conformationally constrained phenylalanine residue evokes a selective immune response in human neutrophils” (Bioorg Med Chem, 2013)
